The values that follow come from patent US7541463B2, “Sulfur-containing naphthalimide derivatives” (East China University of Science and Technology, priority 2003, dated 2009).

The subject of one data set is mice leukemia cell P388. Nature of the data set: Growth inhibition of P388 cells, MTT assay. Type of data set: cell-based. To be noted: Mus musculus, read-out: Growth inhibition effect to P388 cell strain; for inhibition at 100 µM: 10^−4 M; for inhibition at 10 µM: 10^−5 M; for inhibition at 1 µM: 10^−6 M; for inhibition at 0.1 µM: 10^−7 M; for inhibition at 0.01 µM: 10^−8 M. Here is the method: (§1) The cell growth inhibition of mice leukemia cell P388 was evaluated by MTT (microculture tetrozolium) assay, while the cell growth inhibition of human lung adenocarcinoma cell A-549 was evaluated by SRB (Sulforhodamine B) protein staining assay.
The procedure of MTT assay was as follows: appropriate amount of cells in log phase were seeded in 96-well plates (6000 cells/well, 15000 cells/well, 90ul/well) according to the growing rate. After cultured for 24 h, cells were exposed to serial dilutions of drugs in triplicate (10 ul/well). In addition, wells without cell, and wells without cell but with serial dilutions of drugs in case of using a colored-drug were set for zeroing. Then, the cells were cultured in 5% CO2 humidified incubator at 37° C. for 48 h. After treatment of drugs for 48 h, 20ul MTT (Sigma) which was diluted by normal saline to the concentration of 5 mg/ml was added to each well, 50ul/well 10%SDS-5% isobutanol-0.01% mol/LHCl was added after 4 h. After cultured overnight, absorbance was measured at 570 nm using a multiwell spectrophotometer. The inhibition effect of the compounds in test (percentage of growth inhibition) was calculated for each well: % inhibition=(OD570control cells−OD570treated cells)/OD570control cells×100%.
(§2) The cell lines used were mice leukemia cell P388, human leukemia cell MOLT-4, human lung adenocarcinoma cell A-549, human gastric adenocarcinoma SGC-7901, human hepatocellular carcinoma BEL-7402 and human embryonal fibroblast WI-38 (commerially available from ATCC).
(§3) The exposure time to compounds was 48 h-72 h.
In general terms: Tetrazolium assays rely on reduction of a dye to a coloured formazan, in cell work by metabolically active cells.

Data set [1] concerns human lung adenocarcinoma cell A-549. In words: Growth inhibition of A-549 cells, SRB protein staining assay. To be noted: read-out: Growth inhibition effect to A-549 cell strain; for inhibition at 100 µM: A549, 10^−4 M; for inhibition at 10 µM: A549, 10^−5 M; for inhibition at 1 µM: A549, 10^−6 M; for inhibition at 0.1 µM: A549, 10^−7 M; for inhibition at 0.01 µM: A549, 10^−8 M. The format is cell-based. Here is the method:
as §1
The procedure of SRB assay was as follows: appropriate amount of cells in log phase were seeded in 96-well plates according to the growing rate (90 ul/well). After cultured for 24 h, cells were exposed to serial dilutions of drugs in triplicate (10 ul/well). In addition, control wells of normal saline in corresponding concentrations and zeroing wells without cell were set. The cells were incubated in 5% CO2 humidified incubator at 37° C. After 72 h, the medium was removed and cells were fixed with cold 10% trichloric acid (TCA) at 4° C. for 1 h. The plates were washed with distilled water 5 times, and stained in room temperature with 4 mg/ml SRB (Sigma, diluted with 1% glacial acetic acid, 100 ul/well) for 15 minutes after air drying. SRB was then washed with 1% acetic acid 5 times. Plates were dried, followed by adding 150 ul/well Tris solution. Absorbance was measured at […] using a multiwell spectrophotometer. The inhibition effect of the compounds in test (percentage of growth inhibition) was calculated for each well: % inhibition=(A540control cells−A540treated cells)/A540control cells×100%.
as §2, §3

Each structure is given as a SMILES string.

Turning to `CN(C)CCN1C(=O)c2cccc3c2c(cc2nc(-c4ccccc4Cl)sc23)C1=O` [compound 10, N-(N′,N′-dimethylaminoethyl)-4H, 6H-9-o-chlorophenyl-benzo[de]thiazol[5,4-g]isoquinoline-4,6-diketone], the melting point is 235 to 237 °C. Further, in the data set with mice leukemia cell P388, the inhibition at 100 µM came to 96.1%, the inhibition at 10 µM is 89%, the inhibition at 1 µM was found to be 64.6% and the inhibition at 0.1 µM worked out at 40.5%. The inhibition at 0.01 µM in the data set with mice leukemia cell P388 was 7.3%. In data set [1], the inhibition at 100 µM came out at 91.4%, the inhibition at 10 µM was 93.4%, the inhibition at 1 µM worked out at 94.5% and the inhibition at 0.1 µM was determined as 35.7%. In data set [1], the inhibition at 0.01 µM worked out at 12.5%.

Take `CCCCN1C(=O)c2cccc3c2c(cc2nnsc23)C1=O` [compound 12, 5-butyl-4H, 6H-benzo[de]-1,2,3,-thiadiazol[5,4-g]isoquinoline4,6-diketone]: the melting point was in the range of 177 to 179 °C. In the data set on mice leukemia cell P388, the inhibition at 100 µM worked out at 54.3%, the inhibition at 10 µM is 23.2%, the inhibition at 1 µM was 17.1% and the inhibition at 0.1 µM was determined as 12.3%. The inhibition at 0.01 µM in the data set on mice leukemia cell P388 was 15.6%. Moreover, in data set [1], the inhibition at 100 µM is 69.4%, the inhibition at 10 µM stood at 75.2%, the inhibition at 1 µM stood at 0% and the inhibition at 0.1 µM is 2.3%. Besides, in data set [1], the inhibition at 0.01 µM came out at 0%.

On to `CN(C)CCCN1C(=O)c2cccc3c2c(cc2nnsc23)C1=O` [compound 13, 5-(N′,N′-dimethylaminopropyl)-4H, 6H-benzo[de]-1,2,3,-thiadiazol[5,4-g]isoquinoline-4,6-diketone], for which the melting point lay in the range of 101 to 102 °C. In the data set on mice leukemia cell P388, the inhibition at 100 µM came out at 99.5%, the inhibition at 10 µM came to 89.2%, the inhibition at 1 µM amounted to 19.8% and the inhibition at 0.1 µM amounted to 11%. Besides, the inhibition at 0.01 µM with mice leukemia cell P388 was 14.5%. Besides, in data set [1], the inhibition at 100 µM is 95.9%, the inhibition at 10 µM stood at 94.4%, the inhibition at 1 µM stood at 90.6% and the inhibition at 0.1 µM worked out at 0%. For the same molecule, the inhibition at 0.01 µM in data set [1] was found to be 0%.

In the case of `O=C(ON1C(=O)c2cccc3cccc(c23)C1=S)c1ccco1` [compound 34], the melting point was 209 to 211 °C.

In turn, `CN(C)CCN1C(=O)c2cccc3c2c(cc2nc(-c4ccccc4)sc23)C1=O` [compound 5, N-(N′,N′-dimethylaminoethyl)-4H, 6H-9-phenyl-benzo[de]thiazol[5,4-g]isoquinoline-4,6-diketone] came in with a melting point of 220 to 221 °C. In the data set on mice leukemia cell P388, the inhibition at 100 µM stood at 96.6%, the inhibition at 10 µM was 87.7%, the inhibition at 1 µM is 48.2% and the inhibition at 0.1 µM was found to be 21.1%. Further, the inhibition at 0.01 µM in the data set on mice leukemia cell P388 was found to be 8.1%. In data set [1], the inhibition at 100 µM turned out to be 94.8%, the inhibition at 10 µM came out at 91.5%, the inhibition at 1 µM was 73% and the inhibition at 0.1 µM was found to be 69.7%. Also, the inhibition at 0.01 µM in data set [1] is 17.8%.

As for `O=C1c2cccc3c2c(cc2nnsc23)C(=O)N1CCN1CCNCC1` [compound 14, 5-(2′-piperazinylethyl)-4H, 6H-benzo[de]-1,2,3,-thiadiazol[5,4-g]isoquinoline-4,6-diketone], the melting point was in the range of 145 to 146 °C. In addition, in the data set on mice leukemia cell P388, the inhibition at 100 µM was 98.8%, the inhibition at 10 µM came to 90.8%, the inhibition at 1 µM was found to be 16.8% and the inhibition at 0.1 µM was 13.7%. Besides, the inhibition at 0.01 µM in the data set on mice leukemia cell P388 was 18.4%. In data set [1], the inhibition at 100 µM was 95.9%, the inhibition at 10 µM stood at 96.1%, the inhibition at 1 µM worked out at 87.3% and the inhibition at 0.1 µM was determined as 60.2%. Also, the inhibition at 0.01 µM in data set [1] was 4.4%.

The molecule `C=C(C)C(CCn1c(=O)c2ccc3sc4ccccc4c4ccc(c1=O)c2c34)OO` (stereo not drawn) [compound 22] gave a melting point of 210 to 211 °C.

`O=c1c2ccc3sc4ccccc4c4ccc(c(=O)n1CCN1CCNCC1)c2c34` [compound 3, N-(2′-piperazinylethyl)benzo[k, l]thioxanthene-3,4-dicarboximide] gave a melting point of 286 to 287 °C. Further, in the data set with mice leukemia cell P388, the inhibition at 100 µM came out at 100%, the inhibition at 10 µM is 100%, the inhibition at 1 µM turned out to be 22.2% and the inhibition at 0.1 µM was 0%. In the data set on mice leukemia cell P388, the inhibition at 0.01 µM came to 0%. For the same molecule, in data set [1], the inhibition at 100 µM worked out at 78.6%, the inhibition at 10 µM came out at 92.4%, the inhibition at 1 µM came to 69.8% and the inhibition at 0.1 µM was 4.7%. Also, in data set [1], the inhibition at 0.01 µM worked out at 0%.

With `CC(C)=CCN1C(=O)c2cccc3c2c(cc2c4ccccc4sc32)C1=O` [compound 21], the melting point is 207 to 208 °C.

As for `CN(C)CCN1C(=O)c2cccc3c2c(cc2nc(-c4ccccc4O)sc23)C1=O` [compound 8, N-(N′,N′-dimethylaminoethyl)-4H, 6H-9-o-hydroxyphenyl-benzo[de]thiazol[5,4-g]isoquinoline-4,6-diketone], the melting point is 240 to 241 °C. In the data set on mice leukemia cell P388, the inhibition at 100 µM stood at 94.8%, the inhibition at 10 µM turned out to be 45.9%, the inhibition at 1 µM came to 24.9% and the inhibition at 0.1 µM is 10%. For the same molecule, the inhibition at 0.01 µM with mice leukemia cell P388 is 8.8%. In data set [1], the inhibition at 100 µM was 95.2%, the inhibition at 10 µM was found to be 59.6%, the inhibition at 1 µM turned out to be 18.6% and the inhibition at 0.1 µM was found to be 1%. Besides, in data set [1], the inhibition at 0.01 µM came to 0.2%.

For the molecule `CCCCN1C(=O)c2cccc3c2c(cc2c4ccccc4sc32)C1=O` [compound 15, N-butylbenzo[b] thieno[2,1-c]naphthalimide], the melting point was in the range of 170 to 172 °C. In addition, in the data set with mice leukemia cell P388, the inhibition at 100 µM was found to be 51.8%, the inhibition at 10 µM was determined as 26%, the inhibition at 1 µM is 3.2% and the inhibition at 0.1 µM came out at 3.2%. Besides, the inhibition at 0.01 µM in the data set on mice leukemia cell P388 worked out at 5.8%. Further, in data set [1], the inhibition at 100 µM was 94%, the inhibition at 10 µM is 45.6%, the inhibition at 1 µM was 0% and the inhibition at 0.1 µM worked out at 0%. In data set [1], the inhibition at 0.01 µM was 0%.

`O=C(ON1C(=O)c2cccc3cccc(c23)C1=S)c1ccc(Cl)cc1` [compound 26] registered a melting point of 182 to 183 °C.

Molecule `COc1ccc(C(=O)ON2C(=O)c3cccc4cccc(c34)C2=S)cc1OC` [compound 32] returned a melting point of 221 to 223 °C.

In turn, `Cc1cc(C)cc(C(=O)ON2C(=O)c3cccc4cccc(c34)C2=S)c1` [compound 31] registered a melting point of 216 to 218 °C.

`C=C(C)C(O)CN1C(=O)c2cccc3c2c(cc2c4ccccc4sc32)C1=O` (stereo not drawn) [compound 20] gave a melting point of 95 to 97 °C.

Turning to `CC(C)=CCCn1c(=O)c2ccc3sc4ccccc4c4ccc(c1=O)c2c34` [compound 23], the melting point is 202 to 203 °C.

`O=C(ON1C(=O)c2cccc3cccc(c23)C1=S)c1ccccc1` [compound 24] displayed a melting point of 189 to 190 °C.

With `C=C(C)C(CN1C(=O)c2cccc3c2c(cc2c4ccccc4sc32)C1=O)OO` (stereo not drawn) [compound 19], the melting point was 174 to 175 °C.

`O=C(ON1C(=O)c2cccc3cccc(c23)C1=S)c1ccc(Cl)cc1F` [compound 30]: the melting point was in the range of 208 to 210 °C.

In general, inhibition refers to the share of the control response that was lost under treatment. In general, melting point refers to the temperature, or range, at which the solid turns liquid.
